In patent US20220016060A1, “USE OF SODIUM 2-(3-PENTYLPHENYL)ACETATE IN THE TREATMENT OF ALSTRÖM SYNDROME” (LIMINAL BIOSCIENCES LIMITED, priority 2018, published 2022):
“And” between values parts separate entries of the source, which are not always exact repeats. Equal values may be shown once. “Also recorded” adds a separate entry of the source.

Key:
Format in all cases: in vivo, human
ALMS patients [1] = assay: Enhanced Liver Fibrosis (ELF) blood test; set-up: increase in ELF test score from baseline / Change from Baseline ELF Test, Median / ELF Test score: scale not given here; conditions: for Change from Baseline ELF Test, Mean (SD) / Change from Baseline ELF Test, Median / ELF Test score / Severity of Liver Fibrosis Based on ELF Test: 800 mg daily oral; for ELF Test score / Severity of Liver Fibrosis Based on ELF Test: individual subjects
Protocol: The study was a Phase 2, single-centre, single-arm, open-label study of sodium 2-(3-pentylphenyl)acetate administered at a total daily oral dose of 800 mg for up to 72 weeks in subjects with ALMS was undertaken. The initial duration of the study was 24 weeks, and subjects were offered to enrol into an extension phase of 36 or 48 weeks. The schedule of study procedures for the enrolment, intervention, and assessments for participants is outlined in FIG. 1. Sodium 2-(3-pentylphenyl)acetate was formulated in soft gelatine capsules containing 200 mg of Sodium 2-(3-pentylphenyl)acetate (amorphous powder) per capsule, polyethylene glycol 400, National Formulary (NF), hydrochloric acid (for pH adjustment), and water. The effect of sodium 2-(3-pentylphenyl)acetate on liver histology in ALMS patients was also assessed using the Enhanced Liver Fibrosis (ELF™) blood test. The ELF™ Blood Test combines three serum biomarkers (Hyaluronic acid (HA), Procollagen III amino terminal peptide (PIIINP), and Tissue inhibitor of metalloproteinase 1 (TIMP-1)) which, when correlated, are able to identify a quantifiable level of liver fibrosis.

ALMS patients [2] = assay: Glycated hemoglobin (HbA1c); conditions: for Change from Baseline HbA1c, Mean / Change from Baseline HbA1c, Median / HbA1c: 800 mg daily oral; for HbA1c: individual subjects
Protocol: The study was a Phase 2, single-centre, single-arm, open-label study of sodium 2-(3-pentylphenyl)acetate administered at a total daily oral dose of 800 mg for up to 72 weeks in subjects with ALMS was undertaken. The initial duration of the study was 24 weeks, and subjects were offered to enrol into an extension phase of 36 or 48 weeks. The schedule of study procedures for the enrolment, intervention, and assessments for participants is outlined in FIG. 1. Sodium 2-(3-pentylphenyl)acetate was formulated in soft gelatine capsules containing 200 mg of Sodium 2-(3-pentylphenyl)acetate (amorphous powder) per capsule, polyethylene glycol 400, National Formulary (NF), hydrochloric acid (for pH adjustment), and water. Glycated hemoglobin (HbA1c) is measured primarily to determine the three-month average blood sugar level, and is used as a diagnostic test for diabetes mellitus and as an assessment test for glycemic control in people with diabetes. HbA1c was assessed in ALMS patients treated with sodium 2-(3-pentylphenyl)acetate. There was a statistically significant mean decrease of 0.53% (p=0.0144) in HbA1c from baseline after 12 weeks of treatment (Table 16).

ALMS patients [3] = assay: Fasting plasma glucose (FPG); conditions: for Change from Baseline FPG, Mean / Change from Baseline FPG, Median / FPG: 800 mg daily oral; for FPG: individual subjects
Protocol: The study was a Phase 2, single-centre, single-arm, open-label study of sodium 2-(3-pentylphenyl)acetate administered at a total daily oral dose of 800 mg for up to 72 weeks in subjects with ALMS was undertaken. The initial duration of the study was 24 weeks, and subjects were offered to enrol into an extension phase of 36 or 48 weeks. The schedule of study procedures for the enrolment, intervention, and assessments for participants is outlined in FIG. 1. Sodium 2-(3-pentylphenyl)acetate was formulated in soft gelatine capsules containing 200 mg of Sodium 2-(3-pentylphenyl)acetate (amorphous powder) per capsule, polyethylene glycol 400, National Formulary (NF), hydrochloric acid (for pH adjustment), and water.

[4] = Subject 826-001-001, 204-day break in treatment

## CCCCCc1cccc(CC(=O)[O-])c1.[Na+] [sodium 2-(3-pentylphenyl)acetate]
ALMS patients [1]; 6/12 subjects
  subjects in whom ELF test score decreased from baseline: 50.0%
ALMS patients [1]; 10/12 subjects
  subjects in whom severity of liver fibrosis based on the ELF test was stable or improved from baseline: 83.3%
ALMS patients [1]; EP Week 12 (Week 36), N=10
  Change from Baseline ELF Test, Mean (SD): −0.24 (1.056)
  Change from Baseline ELF Test, Median: −0.02
ALMS patients [1]; EP Week 24 (Week 48), N=9
  Change from Baseline ELF Test, Mean (SD): −0.22 (1.086)
  Change from Baseline ELF Test, Median: −0.13
ALMS patients [1]; EP Week 36 (Week 60), N=8
  Change from Baseline ELF Test, Mean (SD): −0.26 (1.193)
  Change from Baseline ELF Test, Median: −0.03
ALMS patients [1]; [4]
  change in severity of liver fibrosis based on ELF test: increase in liver fibrosis from moderate to severe
  increase in ELF test score from baseline: 1.36
ALMS patients [1]; Subject 826-001-004, 30-day break in treatment
  increase in ELF test score from baseline: 1.17
ALMS patients [1]; Week 12, N=12
  Change from Baseline ELF Test, Mean (SD): 0.02 (1.023)
  Change from Baseline ELF Test, Median: 0.24
ALMS patients [1]; Week 24, N=12
  Change from Baseline ELF Test, Mean (SD): −0.26 (0.933)
  Change from Baseline ELF Test, Median: 0.06
ALMS patients [1]; EP Week 12 (Week 36)
  ELF Test score: 9.13 and 8.68 and 7.68 and 8.19 and 6.80 and 9.92 and 8.48 and 11.58 and 8.75 and 8.73
  Severity of Liver Fibrosis Based on ELF Test: Mod (moderate fibrosis ≥ 7.7 to < 9.8); also recorded: NTM (None to mild fibrosis < 7.7); also recorded: Sev (severe fibrosis ≥ 9.8)
ALMS patients [1]; EP Week 24 (Week 48)
  ELF Test score: 10.30 and 8.00 and 6.98 and 7.45 and 6.95 and 8.36 and 11.14 and 8.76 and 8.74
  Severity of Liver Fibrosis Based on ELF Test: Sev (severe fibrosis ≥ 9.8); also recorded: Mod (moderate fibrosis ≥ 7.7 to < 9.8); also recorded: NTM (None to mild fibrosis < 7.7)
ALMS patients [1]; EP Week 36 (Week 60)
  ELF Test score: 10.28 and 8.42 and 7.16 and 9.90 and 8.50 and 10.79 and 8.64 and 8.74
  Severity of Liver Fibrosis Based on ELF Test: Sev (severe fibrosis ≥ 9.8); also recorded: Mod (moderate fibrosis ≥ 7.7 to < 9.8); also recorded: NTM (None to mild fibrosis < 7.7)
ALMS patients [1]; Week 12
  ELF Test score: 8.50 and 8.63 and 9.75 and 7.98 and 7.93 and 7.33 and 10.05 and 9.71 and 10.96 and 8.51 and 11.25 and 9.05
  Severity of Liver Fibrosis Based on ELF Test: Mod (moderate fibrosis ≥ 7.7 to < 9.8); also recorded: NTM (None to mild fibrosis < 7.7); also recorded: Sev (severe fibrosis ≥ 9.8)
ALMS patients [1]; Week 24
  ELF Test score: 9.31 and 9.02 and 8.60 and 7.14 and 7.26 and 7.31 and 10.39 and 8.41 (2×) and 10.69 and 8.47 and 11.29
  Severity of Liver Fibrosis Based on ELF Test: Mod (moderate fibrosis ≥ 7.7 to < 9.8); also recorded: NTM (None to mild fibrosis < 7.7); also recorded: Sev (severe fibrosis ≥ 9.8)
ALMS patients [2]; 8/12 subjects
  subjects in whom HbA1c decreased or did not change from baseline: 66.7%
ALMS patients [2]; EP Week 12 (Week 36), N=10
  Change from Baseline HbA1c, Mean: 0.24%
  Change from Baseline HbA1c, Median: 0.00%
ALMS patients [2]; EP Week 24 (Week 48), N=10
  Change from Baseline HbA1c, Mean: −0.28%
  Change from Baseline HbA1c, Median: −0.30%
ALMS patients [2]; EP Week 36 (Week 60), N=9
  Change from Baseline HbA1c, Mean: −0.18%
  Change from Baseline HbA1c, Median: −0.10%
ALMS patients [2]; EP Week 48 (Week 72), N=3
  Change from Baseline HbA1c, Mean: 0.13%
  Change from Baseline HbA1c, Median: 0.10%
ALMS patients [2]; [4]
  HbA1c increase above baseline by the last study visit: 1%
ALMS patients [2]; Subjects 826-001-007, 826-001-009 and 826-001-014
  HbA1c reduction below baseline: 1%
ALMS patients [2]; Week 12, N=12
  Change from Baseline HbA1c, Mean: −0.53%
  Change from Baseline HbA1c, Median: −0.55%
ALMS patients [2]; Week 24, N=12
  Change from Baseline HbA1c, Mean: −0.24%
  Change from Baseline HbA1c, Median: −0.05%
ALMS patients [2]; after 12 weeks of treatment, p=0.0144
  mean decrease in HbA1c from baseline: 0.53%
ALMS patients [2]; EP Week 12 (Week 36)
  HbA1c: 12.7% and 5.1% and 5.4% (3×) and 7.5% and 7.3% and 6.4% and 6.2% and 12%
ALMS patients [2]; EP Week 24 (Week 48)
  HbA1c: 10.6% (2×) and 4.9% and 4.7% and 5.7% and 6.8% and 5.4% and 6.5% and 6.3% and 6.7%
ALMS patients [2]; EP Week 36 (Week 60)
  HbA1c: 11.2% and 5.1% and 5.0% and 7.5% and 5.4% and 6.8% (2×) and 6.4% and 9.1%
ALMS patients [2]; EP Week 48 (Week 72)
  HbA1c: 11.1% and 5.0% and 4.9%
ALMS patients [2]; Week 12
  HbA1c: 10.1% and 5.3% and 5.0% and 5.7% (2×) and 8.2% and 5.5% and 6.7% and 6.1% and 10.6% and 6.4% and 6.5%
ALMS patients [2]; Week 24
  HbA1c: 11.1% and 5.4% (2×) and 4.8% and 5.6% and 9.1% and 7.0% and 6.2% and 10.0% and 6.6% and 8.6% and 6.1%
ALMS patients [3]; EP Week 12 (Week 36), N=10
  Change from Baseline FPG, Mean: 0.63 mmol/L
  Change from Baseline FPG, Median: -0.10 mmol/L
ALMS patients [3]; EP Week 24 (Week 48), N=10
  Change from Baseline FPG, Mean: 0.70 mmol/L
  Change from Baseline FPG, Median: -0.10 mmol/L
ALMS patients [3]; EP Week 36 (Week 60), N=9
  Change from Baseline FPG, Mean: 1.49 mmol/L
  Change from Baseline FPG, Median: 0.00 mmol/L
ALMS patients [3]; EP Week 48 (Week 72), N=3
  Change from Baseline FPG, Mean: -0.93 mmol/L
  Change from Baseline FPG, Median: 0.00 mmol/L
ALMS patients [3]; [4]
  increase in FPG from baseline: 7.4 mmol/L
ALMS patients [3]; Subject 826-001-007, 32-day break in treatment
  increase in FPG from baseline: 7.9 mmol/L
ALMS patients [3]; Week 12, N=11
  Change from Baseline FPG, Mean: 0.30 mmol/L
  Change from Baseline FPG, Median: -0.40 mmol/L
ALMS patients [3]; Week 24, N=12
  Change from Baseline FPG, Mean: 0.33 mmol/L
  Change from Baseline FPG, Median: 0.30 mmol/L
ALMS patients [3]; EP Week 12 (Week 36)
  FPG: 18.0 mmol/L and 4.8 mmol/L and 4.3 mmol/L and 5.2 mmol/L and 9.1 mmol/L and 4.4 mmol/L and 6.5 mmol/L and 6.6 mmol/L and 5.5 mmol/L and 19.9 mmol/L
ALMS patients [3]; EP Week 24 (Week 48)
  FPG: 23.3 mmol/L and 3.8 mmol/L and 4.7 mmol/L and 6.9 mmol/L and 10.2 mmol/L and 4.8 mmol/L and 5.7 mmol/L and 6.2 mmol/L and 5.6 mmol/L and 13.8 mmol/L
ALMS patients [3]; EP Week 36 (Week 60)
  FPG: 22.7 mmol/L and 5.0 mmol/L and 4.6 mmol/L and 13.8 mmol/L and 5.3 mmol/L (2×) and 4.7 mmol/L and 8.6 mmol/L and 14.9 mmol/L
ALMS patients [3]; EP Week 48 (Week 72)
  FPG: 12.5 mmol/L and 5.5 mmol/L and 4.7 mmol/L
ALMS patients [3]; Week 12
  FPG: 22.8 mmol/L and 4.6 mmol/L and 4.3 mmol/L and 5.3 mmol/L and 16.9 mmol/L and 7.0 mmol/L and 5.5 mmol/L and 17.6 mmol/L and 6.5 mmol/L and 5.0 mmol/L and 4.7 mmol/L
ALMS patients [3]; Week 24
  FPG: 12.9 mmol/L and 4.9 mmol/L and 4.7 mmol/L and 5.7 mmol/L and 11.1 mmol/L and 4.8 mmol/L and 7.2 mmol/L and 7.4 mmol/L and 22.6 mmol/L and 6.5 mmol/L and 13.5 mmol/L and 6.1 mmol/L
